Data on 4 compounds can be found in patent publication US20120197059A1, “UBIQUITIN INTERACTING MOTIF PEPTIDES AS CANCER THERAPEUTICS” (priority 2011, published 2012).

For data set [1] the following is noted: in vivo; cited from earlier work.
The conditions of data set [2]: free acid; cited from earlier work.
Data set [3] deals with VEGFR-2. The experiment in a line: VEGF signaling assay with Dynasore, western blotting. To be noted: HUVEC, 40 or 80 μM Dynasore, VEGF-A 50 ng/ml. In kind it is cell-based, human.
For data set [4] the following is noted: cited from earlier work.
For data set [5], the system named is gliomas. To be noted: given before, at the time of or after tumor implantation; cited from earlier work.
Data set [6] has as its system retina angiogenesis. Nature of the data set: Retinal angiogenic sprouting in EC-iDKO P6 pups, isolectin B4 staining. The data set is classed as in vivo, mice. To be noted: IP/intraocular injection. The method, then:
Immunohistochemistry and immunofluorescence of tissue samples. Immunohistochemistry and immunofluorescence were performed as described with modifications (Chen et al., 1998; Chen et al., 2009). • E9/10 Hind Brain: Embryos were harvested at E9 or E10 and fixed. Hindbrain was harvested and processed for staining with anti-CD31 and donkey anti-rat Alex Fluor 488 secondary antibody. • P6 Skin: Wild-type or EC-iDKO pups were injected intraperitoneally with 5 mg/kg (body weight) of 4-hydroxytamoxifen (10 mg/ml of 4-Hydroxytamoxifen resuspended in 10% of ethanol and 90% of DMSO) per day from postnatal day 1 (P1) to P3. Pups were euthanized at P6 and skin from abdomen was harvested and processed for whole mount staining with anti-CD31 and donkey anti-rat Alexa Fluor 488 secondary antibody. • P6 Retina: Wild-type or EC-iDKO Pups were injected with 4-hydroxytamoxifen as described above per day from postnatal day 2 (P2) to P4. P6 pups were euthanized and whole eyes harvested. […]
Receptor tyrosine kinase inhibitors injection. […] For western blot analysis, skin and heart tissues were collected from WT P6 pups injected either with DMSO or inhibitors and analyzed for phospho-Akt and total Akt.

Data set [7] has as its system DKO MECs. Nature of the data set: BrdU labeling of mouse endothelial cells. The data set is classed as cell-based. As for the experimental part: BrdU labeling. BrdU labeling of Mouse Endothelial Cells. WT and DKO MECs were grown in a 48-well plate until they reached 50% percent confluency. Cells were starved overnight and stimulated with growth factors or growth factors plus inhibitors for 6 h. BrdU labeling and detection kit (Roche) was then used to label the proliferating cells. Briefly, cells were incubated with BrdU labeling medium (1:500 diluted in medium) for 3 h. Cells were washed three times with wash buffer and fixed with ethanol for 20 min at −20° C. followed by washing the cells three times with wash buffer and incubated with 6M HCl/0.1% Triton for 30 minutes at room temperature. This was followed by six washes with PBS/0.1% Triton. Cells were blocked with PBS/0.3% Triton/3% BSA/3% donkey serum for 30 min at room temperature followed by incubation with anti-BrdU working solution for 30 minutes at 37° C. After three washes with wash buffer cells were again incubated with donkey anti-mouse Ig-fluorescein for 30 minutes at 37° C. After washing the cells three times with wash buffer they were stained with DAPI and visualized using Olympus Fluorescent microscope. Percentage of proliferating cells was calculated based on the ratio of BrdU-positive cells versus DAPI-positive cells.

In the case of `CC(C)(C)[N+]([O-])=Cc1ccc(S(=O)(=O)O)cc1S(=O)(=O)O` [2,4-ds PBN, 2,4-disulfonyl phenyl-tert-butyl nitrone], in data set [1], the “efficacy as compared to PBN” value is reported as “unexpected increase”; the “potency as compared to PBN” value is given as “increase in potency”; the “toxicity as compared to PBN” value was “marked and highly significant decrease”. In addition, in data set [2], the solubility in water result is reported as “greater than 1 gram/ml”.
On to `O=C(N/N=C/c1ccc(O)c(O)c1)c1cc2ccccc2cc1O` [Dynasore], for which the “total levels of VEGFR-2 and phosphorylation of VEGFR-2 and its downstream signaling effectors” value in data set [3] is “dramatically increased”.
Consider `CC(C)(C)[N+]([O-])=Cc1ccccc1` [PBN, phenyl N-tert-butyl nitrone], for which the tissue distribution result in data set [4] (rat, in vivo) is “readily and rapidly distributed almost equally to all tissues”. Moreover, the half-life result in data set [4] (rats) is “about 132 minutes”. For the same compound, in data set [5], the glioma tumor development result was “able to control tumor development”.
As to `CC(C)c1cc(/C=C(\C#N)C(=O)NCCCc2ccccc2)cc(C(C)C)c1O` [inhibitors to VEGFR-2], in data set [6], the “elevated angiogenic sprouting in EC-iDKO retina” value is given as “reversed”. Besides, the “VEGF-increased proliferation of DKO MECs” value in data set [7] is listed as “abrogated”.
